# pIC50: −log10 of the molar value.
# What was measured:
# Assay in all cases: KAM-matrix competition in K562 lysate;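 on 0.001 uM KAM: median log10 fold change of treatment over DMSO control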;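 on 0.01 uM KAM: median log10 fold change of treatment over DMSO control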;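 on 0.1 uM KAM: median log10 fold change of treatment over DMSO control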;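 on 1 uM KAM: median log10 fold change of treatment over DMSO control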;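 on 10 uM KAM: median log10 fold change of treatment over DMSO control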
# Assay type in all cases: binding
# PLK1 = biological target: T1, PLK1 (Homo sapiens, UniProt P53350);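 on 0.001 uM KAM: median log10 fold change of treatment over DMSO control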;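 on 0.01 uM KAM: median log10 fold change of treatment over DMSO control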;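 on 0.1 uM KAM: median log10 fold change of treatment over DMSO control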;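 on 1 uM KAM: median log10 fold change of treatment over DMSO control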;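 on 10 uM KAM: median log10 fold change of treatment over DMSO control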
# T1 construct: endogenous in cells; host or cells: K562
# Experimental: (§1) Supplement 12953_2017_125_MOESM1_ESM.zip/MS_Supp Info.xlsx, sheet "KAM" | column: 10 uM KAM; 1 uM KAM; 0.1 uM KAM; 0.01 uM KAM; 0.001 uM KAM; RB50
# NEK1 = biological target: T2, NEK1 (Homo sapiens, UniProt Q96PY6)
# T2 construct: endogenous in cells; host or cells: K562
# T2 sequence (Q96PY6 1-1258): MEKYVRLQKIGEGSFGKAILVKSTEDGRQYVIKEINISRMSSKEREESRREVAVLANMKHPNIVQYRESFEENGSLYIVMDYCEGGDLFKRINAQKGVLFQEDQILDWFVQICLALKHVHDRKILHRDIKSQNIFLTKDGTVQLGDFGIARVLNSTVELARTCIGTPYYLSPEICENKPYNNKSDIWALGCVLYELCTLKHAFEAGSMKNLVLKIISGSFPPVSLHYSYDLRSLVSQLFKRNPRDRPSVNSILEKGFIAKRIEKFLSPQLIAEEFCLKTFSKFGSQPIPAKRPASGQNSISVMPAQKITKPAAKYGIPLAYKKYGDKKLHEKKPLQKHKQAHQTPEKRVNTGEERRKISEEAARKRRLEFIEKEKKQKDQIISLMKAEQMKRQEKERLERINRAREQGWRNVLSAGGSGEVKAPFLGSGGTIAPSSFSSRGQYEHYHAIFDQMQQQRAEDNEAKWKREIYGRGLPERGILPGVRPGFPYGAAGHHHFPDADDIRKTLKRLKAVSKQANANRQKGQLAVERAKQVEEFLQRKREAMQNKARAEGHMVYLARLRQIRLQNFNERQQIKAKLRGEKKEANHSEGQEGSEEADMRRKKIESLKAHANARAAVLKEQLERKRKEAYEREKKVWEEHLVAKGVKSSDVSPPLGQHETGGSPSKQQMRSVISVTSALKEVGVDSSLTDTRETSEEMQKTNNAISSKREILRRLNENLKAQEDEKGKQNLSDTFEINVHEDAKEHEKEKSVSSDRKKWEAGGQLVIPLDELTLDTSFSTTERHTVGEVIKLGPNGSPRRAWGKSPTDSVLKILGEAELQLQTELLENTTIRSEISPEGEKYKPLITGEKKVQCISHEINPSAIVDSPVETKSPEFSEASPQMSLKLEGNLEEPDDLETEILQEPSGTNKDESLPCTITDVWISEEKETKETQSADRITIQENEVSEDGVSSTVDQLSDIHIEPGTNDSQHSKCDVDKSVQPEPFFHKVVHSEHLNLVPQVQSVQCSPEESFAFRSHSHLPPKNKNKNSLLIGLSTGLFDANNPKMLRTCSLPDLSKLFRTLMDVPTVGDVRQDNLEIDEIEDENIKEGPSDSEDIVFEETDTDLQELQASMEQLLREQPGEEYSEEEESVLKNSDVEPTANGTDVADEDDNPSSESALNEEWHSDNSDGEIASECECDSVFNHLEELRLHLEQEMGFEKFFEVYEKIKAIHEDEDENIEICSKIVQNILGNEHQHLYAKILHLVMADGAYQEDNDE
# Experimental: as §1
# SIK2 = biological target: T3, SIK2 (Homo sapiens, UniProt Q9H0K1)
# T3 construct: endogenous in cells; host or cells: K562 cells (lysate)
# Experimental: as §1
# MAP3K2 = biological target: T4, MAP3K2 (Homo sapiens, UniProt Q9Y2U5)
# T4 construct: endogenous in cells; host or cells: K562
# T4 sequence (Q9Y2U5 1-619): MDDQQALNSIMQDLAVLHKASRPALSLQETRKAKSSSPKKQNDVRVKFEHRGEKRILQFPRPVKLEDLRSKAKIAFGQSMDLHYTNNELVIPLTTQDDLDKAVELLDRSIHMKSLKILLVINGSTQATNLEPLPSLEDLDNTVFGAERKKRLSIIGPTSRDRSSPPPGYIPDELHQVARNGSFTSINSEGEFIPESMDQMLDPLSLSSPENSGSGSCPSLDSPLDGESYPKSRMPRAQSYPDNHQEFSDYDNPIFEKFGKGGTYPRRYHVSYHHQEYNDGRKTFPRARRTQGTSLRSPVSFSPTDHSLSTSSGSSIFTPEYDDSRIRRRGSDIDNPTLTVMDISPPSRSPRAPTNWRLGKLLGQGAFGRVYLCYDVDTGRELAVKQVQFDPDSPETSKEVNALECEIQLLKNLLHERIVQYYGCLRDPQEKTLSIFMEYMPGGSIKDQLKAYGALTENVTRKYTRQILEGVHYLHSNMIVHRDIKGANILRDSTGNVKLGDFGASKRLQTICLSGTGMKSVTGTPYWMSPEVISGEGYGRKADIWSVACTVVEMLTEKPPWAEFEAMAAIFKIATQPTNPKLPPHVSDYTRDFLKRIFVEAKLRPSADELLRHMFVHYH
# Experimental: as §1
# DAPK1 = biological target: T5, DAPK1 (Homo sapiens, UniProt P53355);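 on 0.001 uM KAM: median log10 fold change of treatment over DMSO control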;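 on 0.01 uM KAM: median log10 fold change of treatment over DMSO control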;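 on 0.1 uM KAM: median log10 fold change of treatment over DMSO control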;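 on 1 uM KAM: median log10 fold change of treatment over DMSO control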;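 on 10 uM KAM: median log10 fold change of treatment over DMSO control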
# T5 construct: endogenous in cells; host or cells: K562
# Experimental: as §1
# TTN = biological target: T6, TTN (Homo sapiens, UniProt Q8WZ42);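 on 0.001 uM KAM: median log10 fold change of treatment over DMSO control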;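 on 0.01 uM KAM: median log10 fold change of treatment over DMSO control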;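 on 0.1 uM KAM: median log10 fold change of treatment over DMSO control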;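 on 1 uM KAM: median log10 fold change of treatment over DMSO control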;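 on 10 uM KAM: median log10 fold change of treatment over DMSO control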
# T6 construct: endogenous in cells; host or cells: K562
# Experimental: as §1
# [1] = KAM 0.001-10 uM, read-out: RB50 (the source's name)
# [2] = read-out: RB50 (the source's name)
# T1 sequence (P53350 whole entry): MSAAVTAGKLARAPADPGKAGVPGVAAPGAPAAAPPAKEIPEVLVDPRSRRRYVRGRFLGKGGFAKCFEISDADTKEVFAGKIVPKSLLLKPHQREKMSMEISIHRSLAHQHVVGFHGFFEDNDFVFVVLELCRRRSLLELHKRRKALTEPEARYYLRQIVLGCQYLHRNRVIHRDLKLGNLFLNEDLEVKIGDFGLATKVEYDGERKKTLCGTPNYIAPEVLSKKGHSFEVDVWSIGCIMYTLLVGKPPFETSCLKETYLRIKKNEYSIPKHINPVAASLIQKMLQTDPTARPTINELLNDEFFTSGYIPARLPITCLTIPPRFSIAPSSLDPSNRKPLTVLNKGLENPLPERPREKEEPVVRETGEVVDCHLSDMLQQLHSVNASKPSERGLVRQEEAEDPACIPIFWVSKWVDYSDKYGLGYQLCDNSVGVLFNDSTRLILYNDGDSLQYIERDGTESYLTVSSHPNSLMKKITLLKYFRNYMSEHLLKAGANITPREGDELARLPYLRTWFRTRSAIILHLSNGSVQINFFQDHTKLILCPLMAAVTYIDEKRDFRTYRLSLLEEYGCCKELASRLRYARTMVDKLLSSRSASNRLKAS
# T5 sequence (P53355 whole entry): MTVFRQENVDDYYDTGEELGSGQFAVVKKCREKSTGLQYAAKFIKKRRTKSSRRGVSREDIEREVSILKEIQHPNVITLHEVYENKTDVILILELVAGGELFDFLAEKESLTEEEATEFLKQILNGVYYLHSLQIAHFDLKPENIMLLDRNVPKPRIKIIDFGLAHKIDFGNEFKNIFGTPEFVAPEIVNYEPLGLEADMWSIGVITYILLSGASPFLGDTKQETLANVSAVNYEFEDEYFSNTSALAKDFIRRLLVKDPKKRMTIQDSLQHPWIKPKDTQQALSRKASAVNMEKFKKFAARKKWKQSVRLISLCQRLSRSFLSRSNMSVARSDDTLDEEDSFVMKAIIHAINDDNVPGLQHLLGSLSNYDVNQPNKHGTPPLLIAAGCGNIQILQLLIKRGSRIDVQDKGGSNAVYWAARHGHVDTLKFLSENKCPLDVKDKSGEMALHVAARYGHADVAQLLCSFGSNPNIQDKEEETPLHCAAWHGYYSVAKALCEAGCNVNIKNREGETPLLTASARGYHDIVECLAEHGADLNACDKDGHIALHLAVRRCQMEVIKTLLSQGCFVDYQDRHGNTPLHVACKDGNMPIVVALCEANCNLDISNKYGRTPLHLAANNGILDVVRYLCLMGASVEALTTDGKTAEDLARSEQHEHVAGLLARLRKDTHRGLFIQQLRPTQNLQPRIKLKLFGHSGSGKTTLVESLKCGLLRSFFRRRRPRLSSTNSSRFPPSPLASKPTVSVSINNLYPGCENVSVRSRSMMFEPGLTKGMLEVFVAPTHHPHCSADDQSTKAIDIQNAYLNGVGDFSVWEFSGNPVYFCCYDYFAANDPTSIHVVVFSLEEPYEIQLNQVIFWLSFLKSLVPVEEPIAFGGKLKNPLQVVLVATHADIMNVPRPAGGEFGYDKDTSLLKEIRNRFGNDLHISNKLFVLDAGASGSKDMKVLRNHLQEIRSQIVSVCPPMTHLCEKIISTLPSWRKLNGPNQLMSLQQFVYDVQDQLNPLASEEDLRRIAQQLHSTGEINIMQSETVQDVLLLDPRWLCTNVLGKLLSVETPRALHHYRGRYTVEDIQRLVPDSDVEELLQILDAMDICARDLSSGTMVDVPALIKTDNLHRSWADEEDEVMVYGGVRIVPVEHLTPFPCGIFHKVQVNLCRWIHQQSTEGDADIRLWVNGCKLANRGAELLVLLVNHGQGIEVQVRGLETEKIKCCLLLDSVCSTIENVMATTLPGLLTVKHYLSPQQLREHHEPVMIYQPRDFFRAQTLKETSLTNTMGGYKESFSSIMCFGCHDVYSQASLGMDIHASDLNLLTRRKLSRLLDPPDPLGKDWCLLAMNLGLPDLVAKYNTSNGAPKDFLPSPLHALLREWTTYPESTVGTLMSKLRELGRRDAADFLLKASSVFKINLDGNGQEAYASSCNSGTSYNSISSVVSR
# T3 sequence (Q9H0K1 whole entry): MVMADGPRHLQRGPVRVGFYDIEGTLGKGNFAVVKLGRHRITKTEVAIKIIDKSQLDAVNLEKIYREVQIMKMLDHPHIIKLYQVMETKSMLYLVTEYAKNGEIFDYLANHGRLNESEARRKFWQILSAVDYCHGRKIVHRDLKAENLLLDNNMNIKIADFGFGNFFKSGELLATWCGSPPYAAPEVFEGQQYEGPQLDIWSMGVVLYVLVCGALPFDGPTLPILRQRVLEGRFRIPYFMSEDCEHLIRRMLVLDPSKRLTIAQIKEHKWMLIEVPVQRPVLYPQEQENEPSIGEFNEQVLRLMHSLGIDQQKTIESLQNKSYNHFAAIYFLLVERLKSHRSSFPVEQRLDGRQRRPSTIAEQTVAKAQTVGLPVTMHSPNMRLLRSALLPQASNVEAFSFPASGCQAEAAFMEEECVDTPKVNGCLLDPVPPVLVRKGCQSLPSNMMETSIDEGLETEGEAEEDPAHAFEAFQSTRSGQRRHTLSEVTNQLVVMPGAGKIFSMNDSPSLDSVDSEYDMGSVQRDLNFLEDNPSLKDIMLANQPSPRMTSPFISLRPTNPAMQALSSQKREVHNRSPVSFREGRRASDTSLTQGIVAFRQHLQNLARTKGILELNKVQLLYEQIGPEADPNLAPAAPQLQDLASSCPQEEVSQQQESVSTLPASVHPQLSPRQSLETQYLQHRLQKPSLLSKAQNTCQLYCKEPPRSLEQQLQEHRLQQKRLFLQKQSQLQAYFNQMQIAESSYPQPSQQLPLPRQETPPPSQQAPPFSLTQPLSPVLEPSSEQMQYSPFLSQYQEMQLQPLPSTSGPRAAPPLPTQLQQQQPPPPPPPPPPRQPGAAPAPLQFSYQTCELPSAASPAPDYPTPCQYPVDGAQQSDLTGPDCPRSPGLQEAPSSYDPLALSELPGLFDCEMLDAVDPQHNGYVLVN
compound,measurement,setting,value
N#CCc1ccc(Nc2nc(NCCCN)cc(Nc3cc(C4CC4)[nH]n3)n2)cc1 [KAM],pIC50,PLK1; [1],< 5.00
same,0.001 uM KAM,PLK1; relative to 0 uM KAM = 0,-0.04372
same,0.01 uM KAM,PLK1; relative to 0 uM KAM = 0,0.0006975
same,0.1 uM KAM,PLK1; relative to 0 uM KAM = 0,-0.07002
same,1 uM KAM,PLK1; relative to 0 uM KAM = 0,-0.1195
same,10 uM KAM,PLK1; relative to 0 uM KAM = 0,-0.1377
same,median Log10 fold change,NEK1; 0.001 uM KAM,-0.02178
same,median Log10 fold change,NEK1; 0.01 uM KAM,-0.02485
same,median Log10 fold change,NEK1; 0.1 uM KAM,-0.1728
same,median Log10 fold change,NEK1; 1 uM KAM,-0.239
same,median Log10 fold change,NEK1; 10 uM KAM,-0.318
same,pIC50,NEK1; [2],5.47
same,median Log10 fold change,SIK2; 0.001 uM KAM,-0.01021
same,median Log10 fold change,SIK2; 0.01 uM KAM,-0.008818
same,median Log10 fold change,SIK2; 0.1 uM KAM,-0.08618
same,median Log10 fold change,SIK2; 1 uM KAM,-0.3925
same,median Log10 fold change,SIK2; 10 uM KAM,-0.5017
same,pIC50,SIK2; [2],6.10
same,median Log10 fold change,MAP3K2; 0.001 uM KAM,-0.0298
same,median Log10 fold change,MAP3K2; 0.01 uM KAM,0.004839
same,median Log10 fold change,MAP3K2; 0.1 uM KAM,-0.103
same,median Log10 fold change,MAP3K2; 1 uM KAM,-0.3096
same,median Log10 fold change,MAP3K2; 10 uM KAM,-0.4027
same,pIC50,MAP3K2; [2],5.88
same,pIC50,DAPK1; [1],< 5.00
same,0.001 uM KAM,DAPK1; relative to 0 uM KAM = 0,-0.04615
same,0.01 uM KAM,DAPK1; relative to 0 uM KAM = 0,0.02037
same,0.1 uM KAM,DAPK1; relative to 0 uM KAM = 0,-0.07451
same,1 uM KAM,DAPK1; relative to 0 uM KAM = 0,-0.06277
same,10 uM KAM,DAPK1; relative to 0 uM KAM = 0,-0.09328
same,pIC50,TTN; [1],< 5.00
same,0.001 uM KAM,TTN; relative to 0 uM KAM = 0,-0.03178
same,0.01 uM KAM,TTN; relative to 0 uM KAM = 0,0.01596
same,0.1 uM KAM,TTN; relative to 0 uM KAM = 0,-0.008464
same,1 uM KAM,TTN; relative to 0 uM KAM = 0,0.03427
same,10 uM KAM,TTN; relative to 0 uM KAM = 0,0.01084
